Columns and labels:
[1] = target: T1, recombinant human 17β-HSD1 (Homo sapiens, UniProt P14061); experiment: Inhibition of recombinant human 17β-HSD1 (estrone to estradiol conversion, HPLC/radioactivity); type: biochemical; details: compound 100 nM; 30 nM estrone, 1 mM NADPH, 30 min RT
T1 construct: made in house; host or cells: Sd9 (Sf9) insect cells, baculovirus (Bac to Bac Expression System)
T1 sequence (P14061 1-328): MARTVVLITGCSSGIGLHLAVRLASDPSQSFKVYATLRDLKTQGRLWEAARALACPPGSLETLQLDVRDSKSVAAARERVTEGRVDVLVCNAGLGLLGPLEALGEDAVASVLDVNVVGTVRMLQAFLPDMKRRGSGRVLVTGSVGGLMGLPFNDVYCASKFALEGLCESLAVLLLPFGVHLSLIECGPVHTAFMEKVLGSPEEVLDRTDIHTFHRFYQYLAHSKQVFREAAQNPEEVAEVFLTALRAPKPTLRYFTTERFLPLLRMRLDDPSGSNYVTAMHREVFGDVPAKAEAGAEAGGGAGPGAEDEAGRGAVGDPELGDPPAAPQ
Summary of the method: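 Microsomal human 17β-HSD1 from Sf9 baculovirus (1 μg/ml) was incubated 30 min at RT in 20 mM KH2PO4 pH 7.4 with 30 nM ^3H-estrone, 1 mM NADPH and inhibitor at 1 μM or 0.1 μM (1% DMSO). Estrone and estradiol were separated by HPLC with radioactivity detection. % inhibition = 100 − % conversion relative to uninhibited control.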

[2] = system: HSD1 enzyme that is expressed in rabbit placenta tissue; experiment: Inhibition of E1 to E2 conversion in rabbit placenta tissue homogenate; type: biochemical; details: compound 100 nM, 30 nM estrone, 1 mM β-NADPH, 30 min
Summary of the method: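 Rabbit placenta homogenate (20 mM KH2PO4, 1 mM EDTA, pH 7.4) incubated 30 min with 1 mM β-NADPH, 30 nM estrone plus 5 nM [3H]-estrone tracer, and inhibitor at 1 μM or 0.1 μM (1% DMSO). Stopped with TCA; estrone and estradiol resolved by HPLC with scintillation counting; % inhibition = 100 − % conversion relative to uninhibited control.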

## C[C@]12CCC3c4cccc(F)c4CCC3C1[C@H](CCC(=O)NC1CCCCC1)c1c[nH]nc12 (stereo partly drawn) [Compound 207, N-cyclohexyl-3-((8aS,12S)-3-fluoro-8a-methyl-1,2,6b,7,8,8a,10,12,12a,12b-decahydronaphtho[2′,1′:4,5]indeno[1,2-c]pyrazol-12-yl)propanamide]
[1]
  inhibition at 0.1 µM: 95%
[2]
  Rabbit placenta inhibition % @100 nM: 14%

## Cc1ccnc(NC(=O)CC[C@@H]2c3c[nH]nc3[C@@]3(C)CCC4c5ccc(F)cc5CCC4C23)c1 (stereo partly drawn) [Compound 93, 3-((8aS,12S)-4-fluoro-8a-methyl-1,2,6b,7,8,8a,10,12,12a,12b-decahydronaphtho[2′,1′:4,5]indeno[1,2-c]pyrazol-12-yl)-N-(4-methylpyridin-2-yl)-propanamide]
[1]
  inhibition at 0.1 µM: 79%
[2]
  Rabbit placenta inhibition % @100 nM: 31%

## C[C@]12CCC3c4ccccc4CCC3C1[C@H](CCC(=O)Nc1ccccn1)c1c[nH]nc12 (stereo partly drawn) [Compound 171, 3-((8aS,12S)-8a-methyl-1,2,6b,7,8,8a,10,12,12a,12b-decahydronaphtho[2′,1′:4,5]indeno[1,2-c]pyrazol-12-yl)-N-(pyridin-2-yl)propanamide]
[1]
  inhibition at 0.1 µM: 89%
[2]
  Rabbit placenta inhibition % @100 nM: 27%

## C[C@]12CCC3c4cccc(F)c4CCC3C1[C@H](CCC(=O)N1CCC3(CCOCC3)C1)c1c[nH]nc12 (stereo partly drawn) [Compound 219, 3-((8aS,12S)-3-fluoro-8a-methyl-1,2,6b,7,8,8a,10,12,12a,12b-decahydronaphtho[2′,1′:4,5]indeno[1,2-c]pyrazol-12-yl)-1-(8-oxa-2-azaspiro[4.5]decan-2-yl)propan-1-one]
[1]
  inhibition at 0.1 µM: 91%
[2]
  Rabbit placenta inhibition % @100 nM: 14%

## C[C@]12CCC3c4ccccc4CCC3C1[C@H](CCC(=O)Nc1cnccn1)c1c[nH]nc12 (stereo partly drawn) [Compound 189, 3-((8aS,12S)-8a-methyl-1,2,6b,7,8,8a,10,12,12a,12b-decahydronaphtho[2′,1′:4,5]indeno[1,2-c]pyrazol-12-yl)-N-(pyrazin-2-yl)propanamide]
[1]
  inhibition at 0.1 µM: 90%
[2]
  Rabbit placenta inhibition % @100 nM: 46%

## COc1ccc(NC(=O)CC[C@@H]2c3c[nH]nc3[C@@]3(C)CCC4c5ccc(F)cc5CCC4C23)nc1 (stereo partly drawn) [Compound 84, 3-((8aS,12S)-4-fluoro-8a-methyl-1,2,6b,7,8,8a,10,12,12a,12b-decahydronaphtho[2′,1′:4,5]indeno[1,2-c]pyrazol-12-yl)-N-(5-methoxypyridin-2-yl)propanamide]
[1]
  inhibition at 0.1 µM: 87%
[2]
  Rabbit placenta inhibition % @100 nM: 27%

## COc1ccc(NC(=O)CC[C@@H]2c3c[nH]nc3[C@@]3(C)CCC4c5ccccc5CCC4C23)nn1 (stereo partly drawn) [Compound 156, N-(6-methoxypyridazin-3-yl)-3-((8aS,12S)-8a-methyl-1,2,6b,7,8,8a,10,12,12a,12b-decahydronaphtho[2′,1′:4,5]indeno[1,2-c]pyrazol-12-yl)propanamide]
[1]
  inhibition at 0.1 µM: 81%
[2]
  Rabbit placenta inhibition % @100 nM: 56%

## CN(C)C(=O)CC[C@@H]1c2c[nH]nc2[C@@]2(C)CCC3c4cccc(F)c4CCC3C12 (stereo partly drawn) [Compound 222, 3-((8aS,12S)-3-fluoro-8a-methyl-1,2,6b,7,8,8a,10,12,12a,12b-decahydronaphtho[2′,1′:4,5]indeno[1,2-c]pyrazol-12-yl)-N,N-dimethylpropanamide]
[1]
  inhibition at 0.1 µM: 91%
[2]
  Rabbit placenta inhibition % @100 nM: 11%

## C[C@]12CCC3c4cccc(F)c4CCC3C1[C@H](CCC(=O)Nc1ncccc1F)c1c[nH]nc12 (stereo partly drawn) [Compound 231, 3-((8aS,12S)-3-fluoro-8a-methyl-1,2,6b,7,8,8a,10,12,12a,12b-decahydronaphtho[2′,1′:4,5]indeno[1,2-c]pyrazol-12-yl)-N-(3-fluoropyridin-2-yl)propanamide]
[1]
  inhibition at 0.1 µM: 86%
[2]
  Rabbit placenta inhibition % @100 nM: 35%

## C[C@]12CCC3c4cccc(F)c4CCC3C1[C@H](CCC(=O)Nc1cc(F)ccn1)c1c[nH]nc12 (stereo partly drawn) [Compound 15, 3-((8aS,12S)-3-fluoro-8a-methyl-1,2,6b,7,8,8a,10,12,12a,12b-decahydronaphtho[2′,1′:4,5]indeno[1,2-c]pyrazol-12-yl)-N-(4-fluoropyridin-2-yl)propanamide]
[1]
  inhibition at 0.1 µM: 96%
[2]
  Rabbit placenta inhibition % @100 nM: 64%

## COc1ccc(NC(=O)CC[C@@H]2c3c[nH]nc3[C@@]3(C)CCC4c5cccc(F)c5CCC4C23)nc1 (stereo partly drawn) [Compound 21, 3-((8aS,12S)-3-fluoro-8a-methyl-1,2,6b,7,8,8a,10,12,12a,12b-decahydronaphtho[2′,1′:4,5]indeno[1,2-c]pyrazol-12-yl)-N-(5-methoxypyridin-2-yl)propanamide]
[1]
  inhibition at 0.1 µM: 97%
[2]
  Rabbit placenta inhibition % @100 nM: 68%

## CC(C)c1ccc(NC(=O)CC[C@@H]2c3c[nH]nc3[C@@]3(C)CCC4c5ccc(F)cc5CCC4C23)nc1 (stereo partly drawn) [Compound 87, 3-((8aS,12S)-4-fluoro-8a-methyl-1,2,6b,7,8,8a,10,12,12a,12b-decahydronaphtho[2′,1′:4,5]indeno[1,2-c]pyrazol-12-yl)-N-(5-isopropylpyridin-2-yl)propanamide]
[1]
  inhibition at 0.1 µM: 87%
[2]
  Rabbit placenta inhibition % @100 nM: 16%

## COc1ccc(NC(=O)CC[C@@H]2c3c[nH]nc3[C@@]3(C)CCC4c5ccccc5CCC4C23)nc1 (stereo partly drawn) [Compound 141, N-(5-methoxypyridin-2-yl)-3-((8aS,12S)-8a-methyl-1,2,6b,7,8,8a,10,12,12a,12b-decahydronaphtho[2′,1′:4,5]indeno[1,2-c]pyrazol-12-yl)propanamide]
[1]
  inhibition at 0.1 µM: 93%
[2]
  Rabbit placenta inhibition % @100 nM: 35%

## Cn1ccc(NC(=O)CC[C@@H]2c3c[nH]nc3[C@@]3(C)CCC4c5cccc(F)c5CCC4C23)n1 (stereo partly drawn) [Compound 54, 3-((8aS,12S)-3-fluoro-8a-methyl-1,2,6b,7,8,8a,10,12,12a,12b-decahydronaphtho[2′,1′:4,5]indeno[1,2-c]pyrazol-12-yl)-N-(1-methyl-1H-pyrazol-3-yl)propanamide]
[1]
  inhibition at 0.1 µM: 87%
[2]
  Rabbit placenta inhibition % @100 nM: 52%

## CN(C)C(=O)c1ccc(NC(=O)CC[C@@H]2c3c[nH]nc3[C@@]3(C)CCC4c5ccc(Cl)cc5CCC4C23)nc1 (stereo partly drawn) [Compound 126, 6-(3-((8aS,12S)-4-chloro-8a-methyl-1,2,6b,7,8,8a,10,12,12a,12b-decahydronaphtho[2′,1′:4,5]indeno[1,2-c]pyrazol-12-yl)propanamido)-N,N-dimethylnicotinamide]
[1]
  inhibition at 0.1 µM: 89%
[2]
  Rabbit placenta inhibition % @100 nM: 37%

## C[C@]12CCC3c4cccc(F)c4CCC3C1[C@H](CCC(=O)N1CCCC1)c1c[nH]nc12 (stereo partly drawn) [Compound 210, 3-((8aS,12S)-3-fluoro-8a-methyl-1,2,6b,7,8,8a,10,12,12a,12b-decahydronaphtho[2′,1′:4,5]indeno[1,2-c]pyrazol-12-yl)-1-(pyrrolidin-1-yl)propan-1-one]
[1]
  inhibition at 0.1 µM: 94%
[2]
  Rabbit placenta inhibition % @100 nM: 19%

## C[C@]12CCC3c4cccc(F)c4CCC3C1[C@H](CCC(=O)N1Cc3ccccc3C1)c1c[nH]nc12 (stereo partly drawn) [Compound 57, 3-((8aS,12S)-3-fluoro-8a-methyl-1,2,6b,7,8,8a,10,12,12a,12b-decahydronaphtho[2′,1′:4,5]indeno[1,2-c]pyrazol-12-yl)-1-(isoindolin-2-yl)propan-1-one]
[1]
  inhibition at 0.1 µM: 92%
[2]
  Rabbit placenta inhibition % @100 nM: 48%

— US20220041647A1, “ESTRA-1,3,5(10)-TRIENE COMPOUNDS CONDENSED IN POSITION 16(17) WITH A PYRAZOLE RING AS INHIBITORS OF 17-HSD1” (FORENDO PHARMA LTD, priority 2018, published 2022)
